Experimental data taken from patent publication US12419870B2, “Compositions and methods for immune cell modulation in adoptive immunotherapies” (Fate Therapeutics, Inc., priority 2016, dated 2025).

Columns and labels:
[1] = system: viable CD4+ population; assay: In vitro T cell culture compound screen, flow cytometry for cells co-expressing CCR7 and CD62L in CD4+ cells; format: cell-based, human; settings: 10 μM, about 6 days, anti-CD3/anti-CD28 beads; hit criteria: Z-score > +2 for percent or relative absolute number of CCR7+CD62L+ cells
Excerpt: (§1) In Vitro T Cell Culture. Fresh leukopaks (AllCells, Alameda, CA) were obtained from healthy donors, from which T cells were negatively selected using the EasySep Human T Cell Enrichment Kit (Stem Cell Technologies, Vancouver, Canada). The freshly isolated T cells were aliquoted and cryopreserved. On the day the screens were initiated, T cells were thawed and washed into X-Vivo 15 with 5% human AB serum, IL-2, pen/strep, and additional supplements. Cells were dispensed into flat-bottom 384-well plates at 5×10^5 cells/ml with anti-CD3/Anti-CD28 dynabeads (ThermoFisher, Waltham, MA) at a 3:1 bead-to-cell ratio. Individual compounds were added at a final concentration of 10 μM to each well from column 3 to column 22 of each plate. Positive and negative controls were added to additional wells. Cells were incubated for about 6 days at 37 degrees with 5% CO2.
(§2) Flow Cytometry. On Day 6 of culture, cells were stained with a fixable viability marker and fluorophore-conjugated antibodies: CD3, CD4, CD8, CD45RA, CD45RO, CD62L, CCR7, CD27, and CD122 (BD Biosciences, San Jose, CA; and BioLegend, San Diego, CA). Fluorescent absolute counting beads (Spherotech, Lake Forest, IL) were added just prior to acquisition. Data acquisition was performed on a BD Fortessa X-20 (BD Biosciences) and data were analyzed using Treestar software (FlowJo, Ashland, OR) and Spotfire (Tibco, Boston, MA).
(§3) These cells are characterized by expression of CCR7 and CD62L. Therefore, cells co-expressing both of these identifying markers were evaluated. Within the viable CD4+ population and viable CD8+ population, the percent of cells co-expressing CCR7 and CD62L was determined. The expression of either CD62L or CCR7 on T cells, as indicative of the desired T cell subsets, have been described as having favorable functional characteristics for CAR-T cell therapy, and potentially other adoptive T cell therapies.
(§4) The number of events in each of these gates relative to the number of absolute counting beads in each sample was calculated, defining a relative measure of the absolute number of naïve, stem cell memory, or central memory T cells within the CD4+ and/or CD8+ populations. A z-Score relative to the screened compound samples within each 384-well plate was calculated for each of these four values: 1) percent CCR7+CD62L+ in CD4+, 2) percent CCR7+CD62L+ in CD8+, 3) absolute relative number of CCR7+CD62L+ in CD4+, and 4) absolute relative number of CCR7+CD62L+ in CD8+(FIGS. 1A and 1i). Z-scores were also calculated for the percent viability of all cells within each sample and the relative absolute number of cells within each sample. A “Z-Score” is a statistical measurement of a score's relationship to the mean in a group of scores. A Z-score of 0 means the score is the same as the mean. A Z-score can also be positive or negative, indicating whether it is above or below the mean and by how many standard deviations.

[2] = system: viable CD8+ population; assay: In vitro T cell culture compound screen, flow cytometry for cells co-expressing CCR7 and CD62L in CD8+ cells; format: cell-based, human; settings: 10 μM, about 6 days, anti-CD3/anti-CD28 beads; hit criteria: Z-score > +2 for percent or relative absolute number of CCR7+CD62L+ cells
Excerpt: as §1, §2, §3, §4

[3] = system: K562-CD19; assay: Secondary tumor rechallenge of mice that survived primary tumor challenge; format: in vivo, NSG mice; settings: 21 day post challenge with secondary tumor
[4] = system: CD8 CAR-T cells; assay: Exhaustion marker (PD-1, Tim-3) expression on CAR-T cells by flow cytometry; format: cell-based, human; settings: 20 nM rapa, 10 μM dmPGE2 or both; two donors; relative to vehicle
Excerpt: T cell dysfunction due to ‘exhaustion’ is a state that can preclude adequate control of cancer or infection.

[5] = system: Nalm6 tumor cells; assay: In vitro serial killing assay of CAR-T cells co-cultured with tumor cells; format: cell-based, human; settings: three rounds of in vitro killing
Excerpt: An in vitro serial killing assay, where CAR-T cells are allowed to “clear” tumor cells in vitro over multiple rounds, is a model that can assess CAR-T expansion in the presence of tumor cells that express the antigen recognized by the CAR. […] After thawing, the CAR-T cells were co-cultured with Nalm6 tumor cells that express endogenous CD19 and transgenic mKate2, a far-red fluorescent protein. Expression of eGFP in the CAR-T cells and mKate2 in the Nalm6 target cells allows easy and reliable identification and counting of both cell types in the serial killing assay. Prior to starting each round of killing, cell numbers were adjusted so that the same ratio of CAR-T cell to Nalm6 target cell was maintained across the CAR-T cell cultures generated from different compound treatments.

[6] = system: CD8 T cells; assay: CD27 cell surface expression on CAR-transduced CD8 T cells by flow cytometry; format: cell-based, human; settings: 20 nM rapa, 10 μM dmPGE2 or both; day 8; two donors; relative to vehicle (DMSO)
Description: (§5) In order to perform these studies, isolated CD8 T cells were activated in bulk on day 0 using CTS (Cell Therapy Systems) Dynabeads™ CD3/CD28 (Thermo Fisher Scientific, Waltham, MA) in T cell media supplemented with IL-2. On day 1, cells were transduced with the CAR Construct 1 shown in FIG. 2 and cell density was adjusted to 0.5×10^6/ml and 10^6 cells were seeded into 12 well plates in the presence of vehicle, 20 nM rapa, 10 μM dmPGE2 or both compounds at the same concentrations. On day 4, cells were transferred into 6-well plates and 2 ml of media was added to each well. On day 6 another 2 ml of media was added to each well. On day 8, cells were analyzed on a flow cytometer for cell surface expression of CD27.

[7] = system: CD8+ T-cells; assay: Gene panel expression changes on Affymetrix human transcriptome arrays; format: cell-based; settings: fold change relative to vehicle treatment
Description: In order to perform these studies, isolated CD8 T cells were activated in bulk on day 0 using CTS (Cell Therapy Systems) Dynabeads™ CD3/CD28 (Thermo Fisher Scientific, Waltham, MA) in T cell media supplemented with IL-2. On day 1, cells were transduced with the CAR Construct 1 shown in FIG. 2 and cell density was adjusted to 0.5×10^6/ml and 10^6 cells were seeded into 12 well plates in the presence of vehicle, 20 nM rapa, 10 μM dmPGE2 or both compounds at the same concentrations. On day 4, cells were transferred into 6-well plates and 2 ml of media was added to each well. On day 6 another 2 ml of media was added to each well.
The RNA was analyzed on Affymetrix human transcriptome arrays and fold changes (relative to vehicle treatment) of the genes in the panel were determined.

[8] = system: CD8+ T-cells; assay: Genome-wide expression on Human Transcriptome Array microarray chips; settings: 20 nM rapa, 10 μM dmPGE2 or both
Description: as §5

Compound | CD4 Hit [1] | CD8 Hit [2] | mice with no detectable tumor [3] | PD-1 expression [4] | Tim-3 expression [4] | clearing of target cells over time by previously treated CAR-T cells [5] | CD27 expression, relative MFI (vehicle defined as 1) [6] | BLIMP-1 expression [7] | total number of genes down-regulated more than 2 fold compared to vehicle control [8] | total number of genes up-regulated more than 2 fold compared to vehicle control [8]
Oc1cccc(-c2nc(N3CCOCC3)c3oc4ncccc4c3n2)c1 [PI-103] | CD4 | CD8 | 60% | – | – | – | – | – | – | –
CCCCC(C)(C)[C@H](O)/C=C/[C@H]1[C@H](O)CC(=O)[C@@H]1C/C=C\CCCC(=O)O [dmPGE2, 16,16-dimethyl Prostaglandin E2] | – | – | – | decreased | no effect | successfully cleared target cells | no increase | slightly upregulated | 38 | 71
